Experimental data: patent US8883782B2, “Spiro-tetracyclic ring compounds as beta-secretase modulators and methods of use” (Amgen Inc., priority 2010, dated 2014)
Where two headings read alike, the source gives them in different places.

What was measured:
[1] = biological target: Beta Secretase enzyme (BACE) (Homo sapiens, UniProt P56817); experiment: In vitro enzymatic BACE FRET (fluorescence resonance energy transfer) assay; assay type: biochemical; conditions: average IC50, enzyme assay; read-out: BACE 1 FRET assay
Sequence of Beta Secretase enzyme (BACE) (P56817 46-501, species assumed): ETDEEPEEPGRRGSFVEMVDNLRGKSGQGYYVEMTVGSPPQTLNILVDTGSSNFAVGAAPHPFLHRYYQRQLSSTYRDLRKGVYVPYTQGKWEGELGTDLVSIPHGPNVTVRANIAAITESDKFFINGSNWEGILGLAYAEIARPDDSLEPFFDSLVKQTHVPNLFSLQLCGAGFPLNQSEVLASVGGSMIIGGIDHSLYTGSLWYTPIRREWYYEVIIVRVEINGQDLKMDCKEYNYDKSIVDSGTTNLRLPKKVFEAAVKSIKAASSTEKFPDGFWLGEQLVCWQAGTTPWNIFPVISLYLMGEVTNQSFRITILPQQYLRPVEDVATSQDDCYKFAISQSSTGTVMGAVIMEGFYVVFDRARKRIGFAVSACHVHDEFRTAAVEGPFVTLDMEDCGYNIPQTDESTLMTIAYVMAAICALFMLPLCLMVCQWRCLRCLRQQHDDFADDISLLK
Procedure, shortened: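 Cleavage of a 50 nM fluorophore/quencher peptide FRET substrate by BACE for 1 h in 0.05 M acetate pH 4.2, 10% DMSO, 100 uM genapol. Reaction stopped with Tris to neutral pH before fluorescence reading.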

[2] = test system: Aβ40 in conditioned medium of cells stably expressing Amyloid Precursor Protein (APP); experiment: In vitro BACE cell-based assay (Aβ40 in conditioned medium, sandwich ELISA); conditions: read-out: HEK cell assay
Procedure, shortened: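 Conditioned medium from stably APP-expressing cells treated with compound dose series is assayed for Aβ40 by sandwich ELISA with time-resolved fluorescence detection. IC50 is calculated from percent inhibition of Aβ40 against compound concentration.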

[3] = Homo sapiens, HEK293, average IC50
[4] = Homo sapiens, HEK293, average IC50, HEK cells

Row | Molecule | IC50 [1] | IC50 [2, 3] | IC50 [2, 4] | IC50 ([2]; average IC50)
1 | CC(C)(O)C#Cc1ccc2c(c1)[C@]1(COC(N)=N1)c1cc(-c3cncnc3)c(F)cc1O2 [Example 336, 4-((4R)-2-amino-6′-fluoro-7′-(5-pyrimidinyl)spiro[1,3-oxazole-4,9′-xanthen]-2′-yl)-2-methyl-3-butyn-2-ol] | 6.4 nM | 19.3 nM |  | 
2 | NC1=N[C@@]2(CO1)c1cc(-c3cncc(F)c3)ccc1Oc1c(F)cc(C3=CCOCC3)cc12 [Example 447, (4S)-2′-(3,6-dihydro-2H-pyran-4-yl)-4′-fluoro-7′-(5-fluoro-3-pyridinyl)spiro[1,3-oxazole-4,9′-xanthen]-2-amine] | 1.1 nM |  | 5.1 nM | 
3 | NC1=N[C@@]2(CO1)c1cc(-c3cnccn3)ccc1Oc1c(F)cc(N3C[C@@H]4C[C@H]3CO4)cc12 [Example 268, (4S)-4′-fluoro-2′-((1S,4S)-2-oxa-5-azabicyclo[2.2.1]hept-5-yl)-7′-(2-pyrazinyl)spiro[1,3-oxazole-4,9′-xanthen]-2-amine] | 10.5 nM | 26.1 nM |  | 
4 | Cc1ccc(-c2ccc3c(c2)[C@@]2(COC(N)=N2)c2cc(C4=CCOCC4)cnc2O3)o1 [Example 324, (5S)-3-(3,6-dihydro-2H-pyran-4-yl)-7-(5-methyl-2-furanyl)spiro[chromeno[2,3-b]pyridine-5,4′-[1,3]oxazol]-2′-amine] | 42 nM | 158 nM |  | 
5 | NC1=N[C@@]2(CO1)c1cc(-c3cccnc3)ccc1Oc1cnc(-c3ccnc(F)c3)cc12 [Example 536, (5S)-3-(2-fluoro-4-pyridinyl)-7-(3-pyridinyl)spiro[chromeno[2,3-c]pyridine-5,4′-[1,3]oxazol]-2′-amine] | 2.3 nM |  | 27.1 nM | 
6 | CC1(C#Cc2cc3c(cn2)Oc2ccc(-c4ccc(F)nc4)cc2[C@@]32COC(N)=N2)COC1 [Example 156, (5S)-7-(6-fluoro-3-pyridinyl)-3-((3-methyl-3-oxetanyl)ethynyl)spiro[chromeno[2,3-c]pyridine-5,4′-[1,3]oxazol]-2′-amine] | 10.9 nM | 45.9 nM |  | 
7 | NC1=N[C@@]2(CO1)c1cc(-c3cncnc3)ccc1Oc1cnc(-c3cc(F)nc(F)c3)cc12 [Example 542, (5S)-3-(2,6-difluoro-4-pyridinyl)-7-(5-pyrimidinyl)spiro[chromeno[2,3-c]pyridine-5,4′-[1,3]oxazol]-2′-amine] | 1.1 nM |  | 18.8 nM | 
8 | Cc1ccc(-c2ccc3c(c2)[C@@]2(COC(N)=N2)c2cc(-c4ccnc(F)c4)ncc2O3)c(F)n1 [Example 254, (5S)-7-(2-fluoro-6-methyl-3-pyridinyl)-3-(2-fluoro-4-pyridinyl)spiro[chromeno[2,3-c]pyridine-5,4′-[1,3]oxazol]-2′-amine] | 54.5 nM | 1070 nM |  | 
9 | CC(C)N(C)c1cc2c(cn1)Oc1ccc(-c3cccnc3)cc1[C@@]21COC(N)=N1 [Example 435, (5S)-N~3~-methyl-N~3~-(1-methylethyl)-7-(3-pyridinyl)spiro[chromeno[2,3-c]pyridine-5,4′-[1,3]oxazole]-2′,3-diamine] | 5.6 nM |  | 29.6 nM | 
10 | (4S)-4′-fluoro-7′-(2-fluoro-3-pyridinyl)-2′-((2R)-tetrahydro-2H-pyran-2-yl)spiro[1,3-oxazole-4,9′-xanthen]-2-amine [Example 220] | 1.6 nM |  |  | 12.8 nM
11 | NC1=N[C@@]2(CO1)c1cc(-c3cccnc3F)ccc1Oc1ncc(N3CCC(F)(F)C3)cc12 [Example 479, (5S)-3-(3,3-difluoro-1-pyrrolidinyl)-7-(2-fluoro-3-pyridinyl)spiro[chromeno[2,3-b]pyridine-5,4′-[1,3]oxazol]-2′-amine] | 1.1 nM |  | 4.4 nM | 
12 | COc1ccc(-c2cc3c(cn2)Oc2ccc(-c4cccnc4F)cc2[C@@]32COC(N)=N2)cc1 [Example 568, (5S)-7-(2-fluoro-3-pyridinyl)-3-(4-methoxyphenyl)spiro[chromeno[2,3-c]pyridine-5,4′-[1,3]oxazol]-2′-amine] | 2.3 nM |  | 29.5 nM | 

The next lines start with results.

Row | IC50 [1] | IC50 [2, 3] | IC50 [2, 4] | Molecule | IC50 ([2]; average IC50)
13 | 6.6 nM |  | 82 nM | NC1=N[C@@]2(CO1)c1cc(-c3cnccn3)ccc1Oc1c(F)cc(C3CCOCC3)cc12 [Example 935, (4S)-4′-fluoro-7′-(2-pyrazinyl)-2′-(tetrahydro-2H-pyran-4-yl)spiro[1,3-oxazole-4,9′-xanthen]-2-amine] | 
14 | 4 nM |  | 85 nM | C=CCN(C)c1cc(F)c2c(c1)[C@]1(COC(N)=N1)c1cc(-c3cccnc3F)ccc1O2 [Example 853, (4S)-4′-fluoro-7′-(2-fluoro-3-pyridinyl)-N~2~′-methyl-N~2~′-2-propen-1-ylspiro[1,3-oxazole-4,9′-xanthene]-2,2′-diamine] | 
15 | 0.3 nM |  | 4 nM | CC#Cc1cncc(-c2ccc3c(c2)[C@@]2(COC(N)=N2)c2cc(C4=CCOCC4)cc(F)c2O3)c1 [Example 946, (4S)-2′-(3,6-dihydro-2H-pyran-4-yl)-4′-fluoro-7′-(5-(1-propyn-1-yl)-3-pyridinyl)spiro[1,3-oxazole-4,9′-xanthen]-2-amine] | 
16 | 0.8 nM | 33 nM |  | CC1(C)CC(c2cc(F)c3c(c2)[C@]2(COC(N)=N2)c2cc(-c4cccnc4F)ccc2O3)=CC(=O)O1 [Example 804, 4-((4S)-2-amino-4′-fluoro-7′-(2-fluoro-3-pyridinyl)spiro[1,3-oxazole-4,9′-xanthen]-2′-yl)-6,6-dimethyl-5,6-dihydro-2H-pyran-2-one] | 
17 | 70.8 nM |  | 801 nM | NC1=N[C@@]2(CO1)c1cc(-c3ccncc3F)ccc1Oc1cnc(-c3ccnc(F)c3)cc12 [Example 573, (5S)-3-(2-fluoro-4-pyridinyl)-7-(3-fluoro-4-pyridinyl)spiro[chromeno[2,3-c]pyridine-5,4′-[1,3]oxazol]-2′-amine] | 
18 | 0.4 nM |  | 3 nM | NC1=N[C@@]2(CO1)c1cc(-c3cccnc3)ccc1Oc1c2cc(C2=CCOCC2)nc1F [Example 639, (5S)-3-(3,6-dihydro-2H-pyran-4-yl)-1-fluoro-7-(3-pyridinyl)spiro[chromeno[2,3-c]pyridine-5,4′-[1,3]oxazol]-2′-amine] | 
19 | 2400 nM | > 10000 nM |  | COCC1SC(N)=N[C@@]12c1cc(-c3cccnc3F)ccc1Oc1c(F)cc(OC)cc12 (stereo partly drawn) [Example 1090, (4R)-4′-fluoro-7′-(2-fluoro-3-pyridinyl)-2′-methoxy-5-(methoxymethyl)spiro[1,3-thiazole-4,9′-xanthen]-2-amine] | 
20 | 0.3 nM | 3 nM |  | NC1=N[C@@]2(CS1)c1cc(-c3cccnc3)ccc1Oc1c2cc(-c2cccnc2)nc1F [Example 1031, (5S)-1-fluoro-3,7-di-3-pyridinylspiro[chromeno[2,3-c]pyridine-5,4′-[1,3]thiazol]-2′-amine] | 
21 | 2290 nM |  | 724 nM | NC1=N[C@]2(CS1)c1cc(-c3cccnc3)ccc1Oc1ncc(N3CCOCC3)cc12 [Example 601, (5R)-3-(4-morpholinyl)-7-(3-pyridinyl)spiro[chromeno[2,3-b]pyridine-5,4′-[1,3]thiazol]-2′-amine] | 
22 | 33.6 nM | 154 nM |  | NC1=N[C@@]2(CO1)c1cc(OCc3cccnc3)ccc1Oc1ncc(C3=CCOCC3)cc12 [Example 971, (5S)-3-(3,6-dihydro-2H-pyran-4-yl)-7-(3-pyridinylmethoxy)spiro[chromeno[2,3-b]pyridine-5,4′-[1,3]oxazol]-2′-amine] | 
23 | 10.4 nM |  | 9 nM | COc1ccncc1-c1ccc2c(c1)[C@@]1(COC(N)=N1)c1cc(C3=CCOCC3)ncc1O2 [Example 653, (5S)-3-(3,6-dihydro-2H-pyran-4-yl)-7-(4-methoxy-3-pyridinyl)spiro[chromeno[2,3-c]pyridine-5,4′-[1,3]oxazol]-2′-amine] | 
24 | 156 nM | 691 nM |  | CC#Cc1cncc(-c2ccc3c(c2)[C@]2(COC(N)=N2)c2cc(C4CCOCC4)nc(F)c2O3)c1 [Example 754, (5R)-1-fluoro-7-(5-(1-propyn-1-yl)-3-pyridinyl)-3-(tetrahydro-2H-pyran-4-yl)spiro[chromeno[2,3-c]pyridine-5,4′-[1,3]oxazol]-2′-amine] | 
25 | 0.6 nM | 12 nM |  | NC1=N[C@@]2(CO1)c1cc(-c3cnccc3F)ccc1Oc1c(F)cc(C3=CCCOC3)cc12 [Example 1045, (4S)-2′-(5,6-dihydro-2H-pyran-3-yl)-4′-fluoro-7′-(4-fluoro-3-pyridinyl)spiro[1,3-oxazole-4,9′-xanthen]-2-amine] | 
26 | 2.4 nM | 100 nM |  | NC1=N[C@@]2(CO1)c1cc(-c3cccnc3)ccc1Oc1c2cc(-c2ccnc(F)c2)c(F)c1F [Example 1013, (4S)-3′,4′-difluoro-2′-(2-fluoro-4-pyridinyl)-7′-(3-pyridinyl)spiro[1,3-oxazole-4,9′-xanthen]-2-amine] | 
27 | 40000 nM | ≥ 10000 nM |  | NC1=N[C@]2(CO1)c1cc(-c3cccnc3F)ccc1Oc1cc(OC(F)(F)F)c(Br)cc12 [Example 988, (4R)-2′-bromo-7′-(2-fluoro-3-pyridinyl)-3′-(trifluoromethoxy)spiro[1,3-oxazole-4,9′-xanthen]-2-amine] | 
28 | 3.6 nM |  | 162 nM | COc1cc(F)c2c(c1)[C@]1(CSC(N)=N1)c1cc(-c3cccnc3F)ccc1O2 [Example 608, (4S)-4′-fluoro-7′-(2-fluoro-3-pyridinyl)-2′-methoxyspiro[1,3-thiazole-4,9′-xanthen]-2-amine] | 
29 | 475 nM |  | ≥ 10000 nM | CC1(COc2cc(F)c3c(c2)[C@@]2(CSC(N)=N2)c2cc(-c4cccnc4F)c(F)cc2O3)COC1 [Example 886, (4R)-3′,5′-difluoro-2′-(2-fluoro-3-pyridinyl)-7′-((3-methyl-3-oxetanyl)methoxy)spiro[1,3-thiazole-4,9′-xanthen]-2-amine] | 
